Experimental data from patent publication US9873680B2 (Gilead Sciences, Inc., priority 2014, dated 2018).
Like-named read-outs stand apart in the source and are kept apart here.

Columns and labels:
[1] = tested on: HIV-IIIb; assay: Test A: Antiviral Assay in MT4 Cells; type: cell-based, HIV-1; conditions: read-out: % inhibition at 0.2 μM (percent inhibition of virus-induced cell killing)
Description: Test A: Antiviral Assay in MT4 Cells
MT-4 cells were next mixed with HIV-IIIb at an m.o.i of 0.003 for 1 hour, after which time 35 μL of virus/cell mixture (2000 cells) was immediately added to each well containing 40 μL of diluted compound. The plates were then incubated at 37° C. for 5 days. After 5 days of incubation, 25 μl of 2× concentrated CellTiter-Glo™ Reagent (catalog #G7571, Promega Biosciences, Inc., Madison, Wis.) was added to each well containing MT-4 cells. Cell lysis was carried out by incubating at room temperature for 10 min and then chemiluminescence was read.

[2] = Test B: Cytotoxicity Assay; type: cell-based; conditions: human, uninfected MT-4 cells, CellTiter-Glo
Description: Test B: Cytotoxicity Assay Compound cytotoxicity and the corresponding CC50 values was determined using the same protocol as described in the antiviral assay (Test A) except that uninfected cells were used.

[3] = Human immunodeficiency virus 1, MT4, 120 h, 0.2 μM drug concentration, MT-4 cells infected with HIV-IIIb, 5 days, values normalized to 100%, average over time

| SMILES | inhibition at 0.2 µM [1, 3] | CC50 at 5 days [2] | inhibition at 0.2 µM ([1]; Human immunodeficiency virus 1, IIIB, MT4, 120 h) |
| --- | --- | --- | --- |
| O=C(Cn1nc(C(F)F)c2c1C(F)(F)CCC2(F)F)N[C@@H](Cc1cc(F)cc(F)c1)c1nc(C#Cc2cnc3[nH]ccc3c2)ccc1-c1cnc2[nH]ccc2c1 [Compound 4C, (S)—N-(1-(6-((1H-pyrrolo[2,3-b]pyridin-5-yl)ethynyl)-3-(1H-pyrrolo[2,3-b]pyridin-5-yl)pyridin-2-yl)-2-(3,5-difluorophenyl)ethyl)-2-(3-(difluoromethyl)-4,4,7,7-tetrafluoro-4,5,6,7-tetrahydro-1H-indazol-1-yl)acetamide] | 0% | 1.27 µM |  |
| Cn1nc(NS(C)(=O)=O)c2cccc(-c3ccc(C#CC4CCCCN4)nc3[C@H](Cc3cc(F)cc(F)c3)NC(=O)Cn3nc(C(F)(F)F)c4c3C(F)(F)[C@@H]3C[C@H]43)c21 (stereo partly drawn) [Compound 36B, 2-((3bS,4aR)-5,5-difluoro-3-(trifluoromethyl)-3b,4,4a,5-tetrahydro-1H-cyclopropa[3,4]cyclopenta[1,2-c]pyrazol-1-yl)-N-((1S)-2-(3,5-difluorophenyl)-1-(3-(1-methyl-3-(methylsulfonamido)-1H-indazol-7-yl)-6-(piperidin-2-ylethynyl)pyridin-2-yl)ethyl)acetamide] | 83% | 6.57 µM |  |
| Cn1nc(NS(C)(=O)=O)c2cccc(-c3ccc(C#CC4(C)COC4)nc3[C@H](Cc3cc(F)cc(F)c3)NC(=O)Cn3nc(C(F)(F)F)c4c3C(F)(F)[C@@H]3C[C@H]43)c21 [Compound 29, 2-((3bS,4aR)-5,5-difluoro-3-(trifluoromethyl)-3b,4,4a,5-tetrahydro-1H-cyclopropa[3,4]cyclopenta[1,2-c]pyrazol-1-yl)-N—((S)-2-(3,5-difluorophenyl)-1-(3-(1-methyl-3-(methylsulfonamido)-1H-indazol-7-yl)-6-((3-methyloxetan-3-yl)ethynyl)pyridin-2-yl)ethyl)acetamide] | 100% | 12.4 µM |  |
| Cc1nccn1C(C)(C)C#Cc1ccc(-c2ccc(Cl)c3c(NS(C)(=O)=O)nn(C)c23)c([C@H](Cc2cc(F)cc(F)c2)NC(=O)Cn2nc(C(F)F)c3c2C(F)(F)[C@@H]2C[C@H]32)n1 [Compound 89B] | 87% | 8.31 µM |  |
| Cn1nc(NS(C)(=O)=O)c2c(Cl)ccc(-c3cc(N)c(C#CC4(O)CC(F)(F)C4)nc3[C@H](Cc3cc(F)cc(F)c3)NC(=O)Cn3nc(C(F)(F)F)c4c3C(F)(F)[C@@H]3C[C@H]43)c21 [Compound 100, N—((S)-1-(5-amino-3-(4-chloro-1-methyl-3-(methylsulfonamido)-1H-indazol-7-yl)-6-((3,3-difluoro-1-hydroxycyclobutyl)ethynyl)pyridin-2-yl)-2-(3,5-difluorophenyl)ethyl)-2-((3bS,4aR)-5,5-difluoro-3-(trifluoromethyl)-3b,4,4a,5-tetrahydro-1H-cyclopropa[3,4]cyclopenta[1,2-c]pyrazol-1-yl)acetamide] |  | 8.2 µM | 87% |
| Cn1nc(NS(C)(=O)=O)c2c(Cl)ccc(-c3ccc(C#CC4(O)CC4)nc3[C@H](Cc3cc(F)cc(F)c3)NC(=O)Cn3nc(C(F)F)c4c3C(F)(F)[C@@H]3C[C@H]43)c21 [Compound 62B, N—((S)-1-(3-(4-chloro-1-methyl-3-(methylsulfonamido)-1H-indazol-7-yl)-6-((1-hydroxycyclopropyl)ethynyl)pyridin-2-yl)-2-(3,5-difluorophenyl)ethyl)-2-((3bS,4aR)-3-(difluoromethyl)-5,5-difluoro-3b,4,4a,5-tetrahydro-1H-cyclopropa[3,4]cyclopenta[1,2-c]pyrazol-1-yl)acetamide] | 93% | 14.9 µM |  |
| Cn1nc(NS(C)(=O)=O)c2c(Cl)ccc(-c3ccc(C#CC4(O)CO[C@H]5OCC[C@H]54)nc3[C@H](Cc3cc(F)cc(F)c3)NC(=O)Cn3nc(C(F)F)c4c3C(F)(F)[C@@H]3C[C@H]43)c21 (stereo partly drawn) [Compound 52, N-((1S)-1-(3-(4-chloro-1-methyl-3-(methylsulfonamido)-1H-indazol-7-yl)-6-(((3aS,6aR)-3-hydroxyhexahydrofuro[2,3-b]furan-3-yl)ethynyl)pyridin-2-yl)-2-(3,5-difluorophenyl)ethyl)-2-((3bS,4aR)-3-(difluoromethyl)-5,5-difluoro-3b,4,4a,5-tetrahydro-1H-cyclopropa[3,4]cyclopenta[1,2-c]pyrazol-1-yl)acetamide] | 96% | 17.1 µM |  |
| CC(=O)N1CCCC1C#Cc1ccc(-c2ccc(Cl)c3c(NS(C)(=O)=O)nn(C)c23)c([C@H](Cc2cc(F)cc(F)c2)NC(=O)Cn2nc(C(F)(F)F)c3c2C(F)(F)[C@@H]2C[C@H]32)n1 (stereo partly drawn) [Compound 55, N-((1S)-1-(6-((1-acetylpyrrolidin-2-yl)ethynyl)-3-(4-chloro-1-methyl-3-(methylsulfonamido)-1H-indazol-7-yl)pyridin-2-yl)-2-(3,5-difluorophenyl)ethyl)-2-((3bS,4aR)-5,5-difluoro-3-(trifluoromethyl)-3b,4,4a,5-tetrahydro-1H-cyclopropa[3,4]cyclopenta[1,2-c]pyrazol-1-yl)acetamide] | 88% | 9.94 µM |  |
| Cn1nc(NS(C)(=O)=O)c2cccc(-c3ccc(C#CCN4CCOCC4)nc3[C@H](Cc3cc(F)cc(F)c3)NC(=O)Cn3nc(C(F)(F)F)c4c3C(F)(F)[C@@H]3C[C@H]43)c21 [Compound 34, 2-((3bS,4aR)-5,5-difluoro-3-(trifluoromethyl)-3b,4,4a,5-tetrahydro-1H-cyclopropa[3,4]cyclopenta[1,2-c]pyrazol-1-yl)-N—((S)-2-(3,5-difluorophenyl)-1-(3-(1-methyl-3-(methylsulfonamido)-1H-indazol-7-yl)-6-(3-morpholinoprop-1-yn-1-yl)pyridin-2-yl)ethyl)acetamide] | 87% | 10.2 µM |  |
| Cn1nc(NS(C)(=O)=O)c2c(Cl)ccc(-c3ccc(-c4cnn(C5CCOCC5)c4)nc3[C@H](Cc3cc(F)cc(F)c3)NC(=O)Cn3nc(C(F)(F)F)c4c3C(F)(F)[C@@H]3C[C@H]43)c21 [Compound 71, N—((S)-1-(3-(4-chloro-1-methyl-3-(methylsulfonamido)-1H-indazol-7-yl)-6-(1-(tetrahydro-2H-pyran-4-yl)-1H-pyrazol-4-yl)pyridin-2-yl)-2-(3,5-difluorophenyl)ethyl)-2-((3bS,4aR)-5,5-difluoro-3-(trifluoromethyl)-3b,4,4a,5-tetrahydro-1H-cyclopropa[3,4]cyclopenta[1,2-c]pyrazol-1-yl)acetamide] | 97% | > 53.2 µM |  |
| O=C(Cn1nc(C(F)F)c2c1C(F)(F)CCC2(F)F)N[C@@H](Cc1cc(F)cc(F)c1)c1nc(C#Cc2cncnc2)ccc1-c1ccc2c(c1)C(=O)NC21CC1 [Compound 6, (S)-2-(3-(difluoromethyl)-4,4,7,7-tetrafluoro-4,5,6,7-tetrahydro-1H-indazol-1-yl)-N-(2-(3,5-difluorophenyl)-1-(3-(3′-oxospiro[cyclopropane-1,1′-isoindolin]-5′-yl)-6-(pyrimidin-5-ylethynyl)pyridin-2-yl)ethyl)acetamide] | 0% | 1.66 µM |  |
| Cn1nc(NS(C)(=O)=O)c2c(Cl)ccc(-c3ccc(C#CC(C)(C)n4ccnc4)nc3[C@H](Cc3cc(F)cc(F)c3)NC(=O)Cn3nc(C(F)F)c4c3C(F)(F)[C@@H]3C[C@H]43)c21 [Compound 80, N—((S)-1-(6-(3-(1H-imidazol-1-yl)-3-methylbut-1-yn-1-yl)-3-(4-chloro-1-methyl-3-(methylsulfonamido)-1H-indazol-7-yl)pyridin-2-yl)-2-(3,5-difluorophenyl)ethyl)-2-((3bS,4aR)-3-(difluoromethyl)-5,5-difluoro-3b,4,4a,5-tetrahydro-1H-cyclopropa[3,4]cyclopenta[1,2-c]pyrazol-1-yl)acetamide] | 89% | 20.9 µM |  |
| CC(C)(C)OC(=O)N1CCCC1c1ncc(C#Cc2ccc(-c3ccc4c(c3)C(=O)NC4)c([C@H](Cc3cc(F)cc(F)c3)NC(=O)Cn3nc(C(F)(F)F)c4c3C(F)(F)[C@@H]3C[C@H]43)n2)[nH]1 (stereo partly drawn) [Compound 13C, tert-butyl 2-(5-((6-((S)-1-(2-((3bS,4aR)-5,5-difluoro-3-(trifluoromethyl)-3b,4,4a,5-tetrahydro-1H-cyclopropa[3,4]cyclopenta[1,2-c]pyrazol-1-yl)acetamido)-2-(3,5-difluorophenyl)ethyl)-5-(3-oxoisoindolin-5-yl)pyridin-2-yl)ethynyl)-1H-imidazol-2-yl)pyrrolidine-1-carboxylate] | 87% | > 53.2 µM |  |
| Cn1nc(NS(C)(=O)=O)c2c(Cl)ccc(-c3ccc(C#CC(C)(C)n4cn[nH]c4=O)nc3[C@H](Cc3cc(F)cc(F)c3)NC(=O)Cn3nc(C(F)F)c4c3C(F)(F)[C@@H]3C[C@H]43)c21 [Compound 98D, N—((S)-1-(3-(4-chloro-1-methyl-3-(methylsulfonamido)-1H-indazol-7-yl)-6-(3-methyl-3-(5-oxo-1H-1,2,4-triazol-4(5H)-yl)but-1-yn-1-yl)pyridin-2-yl)-2-(3,5-difluorophenyl)ethyl)-2-((3bS,4aR)-3-(difluoromethyl)-5,5-difluoro-3b,4,4a,5-tetrahydro-1H-cyclopropa[3,4]cyclopenta[1,2-c]pyrazol-1-yl)acetamide] | 94% | 10.4 µM |  |
